Results taken from ChEMBL document CHEMBL5126614 (ACS Med Chem Lett, 2022).
pEC50: −log10 of the molar value.

Assays:
[1] = Agonist activity at rhesus monkey GCGR; set-up: species or system Macaca mulatta
[2] = target: Glucagon-like peptide 1 receptor (Homo sapiens, UniProt P43220); assay: Agonist activity at human GLP1R expressed in frozen cells assessed as increase in cAMP production measured after 1 hr by HitHunter luminescence assay; type: functional, cell-based
Homo sapiens = species: Homo sapiens; assay: Selectivity ratio of EC50 for human GCGR expressed in frozen cells to EC50 for human GLP1R expressed in frozen cells; type: cell-based
[3] = Agonist activity at rhesus monkey GLP1R; set-up: species or system Macaca mulatta
Macaca mulatta = species: Macaca mulatta; assay: Selectivity ratio of EC50 for rhesus monkey GCGR to EC50 for rhesus monkey GLP1R
Glucagon receptor = Glucagon receptor (Homo sapiens, UniProt P47871); assay: Agonist activity at human GCGR expressed in frozen cells assessed as increase in cAMP production measured after 1 hr by HitHunter luminescence assay; type: functional, cell-based
Chain of Glucagon receptor (P47871 whole entry): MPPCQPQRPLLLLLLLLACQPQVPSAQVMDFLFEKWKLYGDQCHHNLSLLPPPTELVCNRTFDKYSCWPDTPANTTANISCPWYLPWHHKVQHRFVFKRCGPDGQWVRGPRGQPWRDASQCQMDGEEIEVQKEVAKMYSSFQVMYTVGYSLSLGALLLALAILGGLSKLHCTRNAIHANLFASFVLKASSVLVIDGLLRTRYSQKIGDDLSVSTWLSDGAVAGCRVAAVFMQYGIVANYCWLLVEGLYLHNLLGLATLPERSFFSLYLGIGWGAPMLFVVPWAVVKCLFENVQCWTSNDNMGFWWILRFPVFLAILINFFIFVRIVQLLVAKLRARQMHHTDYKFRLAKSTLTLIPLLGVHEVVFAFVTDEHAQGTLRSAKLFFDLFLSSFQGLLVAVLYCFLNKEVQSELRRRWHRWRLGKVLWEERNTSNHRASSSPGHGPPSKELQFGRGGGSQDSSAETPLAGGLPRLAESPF

Chain of Glucagon-like peptide 1 receptor (P43220 whole entry): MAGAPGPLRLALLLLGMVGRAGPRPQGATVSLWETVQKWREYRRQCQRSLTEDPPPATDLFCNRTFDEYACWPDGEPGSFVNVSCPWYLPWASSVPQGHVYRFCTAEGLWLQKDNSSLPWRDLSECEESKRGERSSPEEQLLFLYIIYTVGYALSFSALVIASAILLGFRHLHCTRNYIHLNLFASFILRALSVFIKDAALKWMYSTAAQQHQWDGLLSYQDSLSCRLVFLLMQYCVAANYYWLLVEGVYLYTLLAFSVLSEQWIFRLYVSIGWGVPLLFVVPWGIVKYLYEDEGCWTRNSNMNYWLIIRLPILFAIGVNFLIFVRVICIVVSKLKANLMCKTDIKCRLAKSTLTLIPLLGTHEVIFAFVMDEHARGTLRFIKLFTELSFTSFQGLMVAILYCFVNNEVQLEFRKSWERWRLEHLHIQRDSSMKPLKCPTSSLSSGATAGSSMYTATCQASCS

CCCCCCCCCCCCCCCC(=O)N[C@@H](CCC(=O)N[C@@H](CCC(=O)NCCCC[C@H](NC(=O)[C@H](CC(=O)O)NC(=O)[C@H](CO)NC(=O)[C@@H](NC(=O)[C@H](Cc1ccccc1)NC(=O)[C@@H](NC(=O)CNC(=O)[C@H](CCC(N)=O)NC(=O)[C@@H](CO)NC(=O)[C@@H](N)Cc1cnc[nH]1)[C@@H](C)O)[C@@H](C)O)C(=O)N[C@@H](CO)C(=O)N[C@@H](CCCCN)C(=O)N[C@@H](Cc1ccc(O)cc1)C(=O)N[C@@H](CC(C)C)C(=O)N[C@@H](CC(=O)O)C(=O)NC(C)(C)C(=O)N[C@@H](CCCNC(=N)N)C(=O)N[C@@H](C)C(=O)N[C@@H](C)C(=O)N[C@@H](CCC(N)=O)C(=O)N[C@@H](CC(=O)O)C(=O)N[C@@H](Cc1ccccc1)C(=O)N[C@H](C(=O)N[C@@H](CCC(N)=O)C(=O)N[C@@H](Cc1c[nH]c2ccccc12)C(=O)N[C@@H](CC(C)C)C(=O)N[C@@H](CC(C)C)C(=O)N[C@@H](CC(=O)O)C(=O)N[C@H](C(N)=O)[C@@H](C)O)C(C)C)C(=O)O)C(=O)O
pEC50 [1]: 11.00
pEC50 [2]: 10.13
Ratio EC50 (Homo sapiens): 1
pEC50 [3]: 10.72
Ratio EC50 (Macaca mulatta): 0.5
pEC50 (Glucagon receptor): 10.14

CCCCCCCCCCCCCCCC(=O)N[C@@H](CCC(=O)N[C@@H](CCC(=O)NCCCC[C@H](NC(=O)[C@H](CC(=O)O)NC(=O)[C@H](CO)NC(=O)[C@@H](NC(=O)[C@H](Cc1ccccc1)NC(=O)[C@@H](NC(=O)CNC(=O)[C@H](CCC(N)=O)NC(=O)[C@@H](CO)NC(=O)[C@@H](N)Cc1cnc[nH]1)[C@@H](C)O)[C@@H](C)O)C(=O)N[C@@H](CO)C(=O)N[C@@H](CCCCN)C(=O)N[C@@H](Cc1ccc(O)cc1)C(=O)N[C@@H](CC(C)C)C(=O)N[C@@H](CC(=O)O)C(=O)N[C@@H](CO)C(=O)N[C@@H](CCCNC(=N)N)C(=O)N[C@@H](C)C(=O)N[C@@H](C)C(=O)N[C@@H](CCC(N)=O)C(=O)N[C@@H](CC(=O)O)C(=O)N[C@@H](Cc1ccccc1)C(=O)N[C@H](C(=O)N[C@@H](CCC(N)=O)C(=O)N[C@@H](Cc1c[nH]c2ccccc12)C(=O)N[C@@H](CC(C)C)C(=O)N[C@@H](CC(C)C)C(=O)N[C@@H](CC(=O)O)C(=O)N[C@H](C(N)=O)[C@@H](C)O)C(C)C)C(=O)O)C(=O)O
pEC50 [1]: 10.68
pEC50 [2]: 10.20
Ratio EC50 (Homo sapiens): 0.6
pEC50 [3]: 10.70
Ratio EC50 (Macaca mulatta): 1
pEC50 (Glucagon receptor): 10.42
